Test results published in ChEMBL document CHEMBL1671707, “Mycobacterium tuberculosis dihydrofolate reductase is not a target relevant to the antitubercular activity of isoniazid” (Antimicrob Agents Chemother, 2010).
Calls of active or inactive are those of the source.

Key:
[1] = tested on: Mycolicibacterium smegmatis; assay: Antimicrobial activity against Mycobacterium smegmatis MC2 5089 harboring pYUB1062 plasmid overexpressing Mycobacterium tuberculosis Rv1484 InhA gene by broth microdilution method; assay type: functional
[2] = tested on: Mycolicibacterium smegmatis; assay: Antimicrobial activity against Mycobacterium smegmatis MC2 5097 harboring pYUB1062 plasmid overexpressing Mycobacterium tuberculosis Rv2763c DfrA gene by broth microdilution method; assay type: functional
[3] = tested on: Mycolicibacterium smegmatis; assay: Antimicrobial activity against Mycobacterium smegmatis MC2 4517 harboring pYUB1062 plasmid overexpressing Mycobacterium tuberculosis Rv3248c SahH gene by broth microdilution method; assay type: functional
[4] = tested on: Mycolicibacterium smegmatis; assay: Antimicrobial activity against Mycobacterium smegmatis MC2 4517 harboring pYUB1062 plasmid overexpressing Mycobacterium tuberculosis Rv0753c MmsA gene by broth microdilution method; assay type: functional
[5] = tested on: Mycolicibacterium smegmatis; assay: Antimicrobial activity against Mycobacterium smegmatis MC2 4517 harboring pYUB1062 plasmid overexpressing Mycobacterium tuberculosis Rv1187 RocA gene by broth microdilution method; assay type: functional
[6] = tested on: Mycolicibacterium smegmatis; assay: Antimicrobial activity against Mycobacterium smegmatis MC2 4517 harboring pYUB1062 plasmid overexpressing Mycobacterium tuberculosis Rv0155 PntAA gene by broth microdilution method; assay type: functional
[7] = tested on: Mycolicibacterium smegmatis; assay: Antimicrobial activity against Mycobacterium smegmatis MC2 4517 harboring pYUB1062 plasmid overexpressing Mycobacterium tuberculosis Rv2623 universal stress protein gene by broth microdilution method; assay type: functional
[8] = tested on: Mycolicibacterium smegmatis; assay: Antimicrobial activity against Mycobacterium smegmatis MC2 4517 harboring pYUB1062 plasmid overexpressing Mycobacterium tuberculosis Rv1996 universal stress protein gene by broth microdilution method; assay type: functional
[9] = tested on: Mycolicibacterium smegmatis; assay: Antimicrobial activity against Mycobacterium smegmatis MC2 4517 harboring pYUB1062 plasmid overexpressing Mycobacterium tuberculosis Rv0468 FadB2 gene by broth microdilution method; assay type: functional
[10] = tested on: Mycolicibacterium smegmatis; assay: Antimicrobial activity against Mycobacterium smegmatis MC2 4517 harboring pYUB1062 plasmid overexpressing Mycobacterium tuberculosis Rv2691 CeoB/TrKA gene by broth microdilution method; assay type: functional
[11] = tested on: Mycolicibacterium smegmatis; assay: Antimicrobial activity against Mycobacterium smegmatis MC2 4517 harboring pYUB1062 plasmid overexpressing Mycobacterium tuberculosis Rv0091 Mtn/Sah gene by broth microdilution method; assay type: functional, organism-based
[12] = tested on: Mycolicibacterium smegmatis; assay: Antimicrobial activity against Mycobacterium smegmatis MC2 4517 harboring pYUB1062 plasmid overexpressing Mycobacterium tuberculosis Rv2858c Aldc gene by broth microdilution method; assay type: functional
[13] = tested on: Mycolicibacterium smegmatis; assay: Antimicrobial activity against Mycobacterium smegmatis MC2 4517 harboring pYUB1062 plasmid overexpressing Mycobacterium tuberculosis Rv1059 unknown gene by broth microdilution method; assay type: functional
[14] = tested on: Mycolicibacterium smegmatis; assay: Antimicrobial activity against Mycobacterium smegmatis MC2 4517 harboring pYUB1062 plasmid overexpressing Mycobacterium tuberculosis Rv0926c unknown gene by broth microdilution method; assay type: functional
[15] = tested on: Mycolicibacterium smegmatis; assay: Antimicrobial activity against Mycobacterium smegmatis MC2 4517 harboring pYUB1062 plasmid overexpressing Mycobacterium tuberculosis Rv3777 probable oxidoreductase gene by broth microdilution method; assay type: functional
[16] = tested on: Mycolicibacterium smegmatis; assay: Antimicrobial activity against Mycobacterium smegmatis MC2 4517 harboring pYUB1062 plasmid overexpressing Mycobacterium tuberculosis Rv2971 probable oxidoreductase gene by broth microdilution method; assay type: functional, organism-based
[17] = tested on: Mycolicibacterium smegmatis; assay: Antimicrobial activity against Mycobacterium smegmatis MC2 4517 harboring pYUB1062 plasmid overexpressing Mycobacterium tuberculosis Rv2766 FabG5 gene by broth microdilution method; assay type: functional
[18] = tested on: Mycolicibacterium smegmatis; assay: Antimicrobial activity against Mycobacterium smegmatis MC2 4517 harboring pYUB1062 plasmid overexpressing Mycobacterium tuberculosis Rv2671 RibD gene by broth microdilution method; assay type: functional
[19] = tested on: Mycobacterium tuberculosis; assay: Antimicrobial activity against Mycobacterium tuberculosis H37Rv harboring pMV261::dfrA plasmid by MTT assay; assay type: functional, organism-based
[20] = tested on: Mycobacterium tuberculosis; assay: Antimicrobial activity against Mycobacterium tuberculosis H37Rv harboring pMV261::InhA plasmid by MTT assay; assay type: functional, organism-based
[21] = tested on: Mycobacterium tuberculosis; assay: Ratio of MIC for Mycobacterium tuberculosis H37RV harboring pMV261::InhA plasmid to MIC for wild-type Mycobacterium tuberculosis H37Rv; assay type: functional

CCc1cc(C(N)=S)ccn1 [ETHIONAMIDE]
inactive: MIC [11] | MIC [16]
9.4 µg/mL: MIC [2] | MIC [3] | MIC [4] | MIC [5] | MIC [6] | MIC [7] | MIC [8] | MIC [9] | MIC [10] | MIC [12] | MIC [13] | MIC [14] | MIC [15] | MIC [17] | MIC [18]
150 µg/mL: MIC [1]

NNC(=O)c1ccncc1 [ISONIAZID]
4.7 µg/mL: MIC [2] | MIC [3] | MIC [4] | MIC [5] | MIC [6] | MIC [7] | MIC [8] | MIC [9] | MIC [10] | MIC [12] | MIC [13] | MIC [14] | MIC [15] | MIC [17] | MIC [18]
20: Ratio [21]
active: Activity [19]
300 µg/mL: MIC [1]
inactive: MIC [11] | MIC [16] | Activity [20]
